According to EP3046573B1, “AMYLIN ANALOGUES” (Zealand Pharma A/S, priority 2013, dated 2015):
Numbered stars: 1 amine (or outer) side, 2 acyl side, 3 side chain; on linkers, the order of the positions; unused ones are H or OH. Bridge positions count the residues as written; N and C are the ends. Square brackets hold non-standard residues; d marks the D form. Peptide text beside a SMILES is read from it. * marks the point of attachment. C20 diacid = O=C(O)CCCCCCCCCCCCCCCCCCC(=O)*; Arachidoyl = CCCCCCCCCCCCCCCCCCCC(=O)*; γGlu = O=C(O)[C@H](CCC(=O)[*:2])N[*:1]; NMeI = CC[C@H](C)[C@H](NC)C(=O)O; Orn = NCCC[C@H](N)C(=O)O; Sar = CNCC(=O)O

How the values were obtained:
[1] = molecular target: T1, human calcitonin receptor (hCTR2) (Homo sapiens, UniProt P30988); assay: hCTR2 assay: induction of cAMP (AlphaScreen cAMP Assay kit) in COS7 cells expressing hCTR2; assay type: cell-based
T1 construct: expressed in transfected cells
T1 sequence (P30988 25-474): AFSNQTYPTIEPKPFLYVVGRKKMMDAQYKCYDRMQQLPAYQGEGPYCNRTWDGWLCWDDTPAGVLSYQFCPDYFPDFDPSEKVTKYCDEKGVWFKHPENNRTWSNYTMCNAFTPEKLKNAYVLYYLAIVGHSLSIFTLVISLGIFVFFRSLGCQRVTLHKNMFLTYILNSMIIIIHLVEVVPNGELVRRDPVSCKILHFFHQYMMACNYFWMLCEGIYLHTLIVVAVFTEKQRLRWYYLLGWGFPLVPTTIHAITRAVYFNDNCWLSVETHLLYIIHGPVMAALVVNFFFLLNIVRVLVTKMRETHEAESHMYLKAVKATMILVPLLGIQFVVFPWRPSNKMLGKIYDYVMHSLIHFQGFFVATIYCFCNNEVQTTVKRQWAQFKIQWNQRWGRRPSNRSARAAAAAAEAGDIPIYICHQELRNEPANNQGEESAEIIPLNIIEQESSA
From the text: The cell line COS7, originating from African Green Monkey kidney fibroblast cells, was used for establishment of the stable cell lines described below. The COS7 cellular background was used due to it being RAMP naive, and as such it provides the best available system for testing of the monomeric hCTR and different heterodimeric amylin receptor subtypes functionally generated by introduction of the individual RAMPs.
A cell line expressing the human calcitonin receptor (hCTR2) was generated in the COS7 cellular background as stable clones. In brief, hCTR2 (GI: 4502547) was amplified by PCR using primers encoding terminal restriction sites for subcloning. The 5'-end primers additionally encoded a near Kozak consensus sequence to ensure efficient translation. The fidelity of the DNA encoding the receptor was confirmed by DNA sequencing. The PCR products encoding the receptor were subcloned into a mammalian expression vector containing a neomycin (G418) resistance marker. The mammalian expression vector encoding the receptor was transfected into COS7 cells by a standard liposome transfection method. 48 hours post-transfection, cells were seeded for limited dilution cloning and selected with 1 mg/ml G418 in the culture medium. After 3 weeks, surviving colonies of hCTR2-expressing cells were picked, propagated and tested in the amylin efficacy assay as described in Example 3 below. One hCTR2-expressing clone was chosen for compound profiling.
In vitro activity of test peptides at the hCTR2 and hAMYR3 receptors was assessed by measuring the induction of cAMP following stimulation of the receptor by pramlintide or peptides of the invention using the AlphaScreen® cAMP Assay kit from Perkin-Elmer.
Briefly, COS7 cells expressing hCTR2 (see Example 2, above) were seeded at 30-40,000 cells per well in 96-well microtiter plates coated with 0.01 % poly-L-lysine, and grown for 1 day in culture in 100 µl growth medium [DMEM, 10% FCS, Penicillin (100 IU/ml), Streptomycin (100 µg/ml)]. On the day of analysis, growth medium was removed and the cells were washed once with 200 µl Tyrode buffer [Tyrode's Salts (9.6 g/l), 10 mM HEPES, pH 7.4]. Cells were incubated in 100 µl Tyrode buffer containing increasing concentrations of test peptides, 100 µM IBMX and 0.1% casein for 15 min at 37° C. The reaction was stopped by carefully decanting off the compound/buffer medium and replacing it with lysis/detection buffer (80 µl 0.1 % w/v BSA, 5 mM HEPES, 0.3 % v/v Tween-20 in deionized water). After incubation at room temperature for 10 min., the cAMP content of the resulting cell lysate was estimated according to the AlphaScreen® cAMP Assay manufacturer's instructions. EC50 values and relative efficacy values (in %) compared to reference peptide (Pramlintide) were estimated by computer-aided curve fitting using the 4-parameter logistic (4PL) non-linear model.
The in vitro activity results (expressed as EC50 values) for peptides of the invention and for Pramlintide (reference peptide) are summarized in Table 2, below.

[2] = Solubility assessment (turbidity absorbance at 325 nm); assay type: physicochemical; details: stock 2 mg/ml diluted 1:1, ambient temperature (typically 25°C), n=1; for Solubility, Acetate buffer pH 4: 100 mM acetate buffer pH 4.0; for Solubility, Acetate buffer pH 5: 100 mM acetate buffer pH 5.0; for Solubility, Histidine buffer pH 6: 100 mM histidine buffer pH 6.0; for Solubility, Histidine buffer pH 7: 100 mM histidine buffer pH 7.0; for Solubility, Phosphate buffer pH 6: 100 mM phosphate buffer pH 6.0; for Solubility, Phosphate buffer pH 7: 100 mM phosphate buffer pH 7.0; for Solubility, Phosphate buffer pH 7.5: 100 mM phosphate buffer pH7.5
Procedure: A stock solution of the test peptide (2 mg/ml; determined from the weighed amount of peptide) in demineralized water adjusted to pH 2.5 with HCI was prepared, and aliquots were diluted 1:1 in 100 mM acetate buffer (pH 4.0 and pH 5.0), 100 mM histidine buffer (pH 6.0 and pH 7.0) and 100 mM phosphate buffer (pH 6.0, pH 7.0 and pH7.5), respectively, and loaded in a standard flat-bottom, non-sterile 96-well UV Microplate. The absorbance of samples (single samples, n=1) at 280 and 325 nm was measured in an absorbance-based plate reader, which was preheated to ambient temperature (typically 25°C). The turbidity absorbance criterion for a peptide solubility of ≥ 1 mg/ml was an absorbance at 325 nm of ≤ 0.02 absorbance units (which is 5 to 6 times the standard deviation of 8 buffer samples in a plate). Solubility data for peptides of the invention, pramlintide, and for a comparison pramlintide derivative denoted NN96 (see Example 5 below for details) are shown in Table 1, below. Table 1. Solubility data for compounds of the invention.

Compound | EC50 [1] [nM] | Solubility, Acetate buffer pH 4 [2] | Solubility, Acetate buffer pH 5 [2] | Solubility, Histidine buffer pH 6 [2] | Solubility, Histidine buffer pH 7 [2] | Solubility, Phosphate buffer pH 6 [2] | Solubility, Phosphate buffer pH 7 [2] | Solubility, Phosphate buffer pH 7.5 [2]
CC[C@H](C)[C@@H](C(=O)N[C@@H](CC(C)C)C(=O)N[C@@H](CO)C(=O)N[C@@H](CO)C(=O)N[C@H](C(=O)N[C@@H](CC(N)=O)C(=O)N[C@H](C(=O)NCC(=O)N[C@@H](CO)C(=O)N[C@@H](CC(N)=O)C(=O)N[C@H](C(=O)N1CCC[C@H]1C(N)=O)[C@@H](C)O)C(C)C)[C@@H](C)O)N(C)C(=O)[C@H](C)NC(=O)CN(C)C(=O)[C@H](Cc1ccccc1)NC(=O)[C@H](CC(N)=O)NC(=O)[C@H](CC(N)=O)NC(=O)[C@H](CO)NC(=O)[C@H](CO)NC(=O)[C@H](Cc1c[nH]cn1)NC(=O)[C@H](Cc1c[nH]cn1)NC(=O)[C@H](CC(C)C)NC(=O)[C@H](Cc1ccccc1)NC(=O)[C@H](CCC(=O)O)NC(=O)[C@H](C)NC(=O)[C@@H](CC(C)C)NC(=O)[C@H](CCCNC(=N)N)NC(=O)[C@H](CCC(N)=O)NC(=O)[C@@H](NC(=O)[C@H](C)NC(=O)[C@@H]1CSSC[C@H](NC(=O)[C@H](CCCNC(=N)N)NC(=O)CC[C@H](NC(=O)CCCCCCCCCCCCCCCCCCC(=O)O)C(=O)O)C(=O)N[C@@H](CC(N)=O)C(=O)N[C@@H]([C@@H](C)O)C(=O)N[C@@H](C)C(=O)N[C@@H]([C@@H](C)O)C(=O)N1)[C@@H](C)O [Compound 6, [19CD]-isoGlu-RC()NTATC()ATQR-DLeu-AEFLHHSSNNF-Gly(Me)-A-Ile(Me)-LSSTNVGSNTP-NH2] ({C20 diacid-γGlu}-RCNTATCATQR[dL]AEFLHHSSNNF[Sar]A[NMeI]LSSTNVGSNTP-NH2; disulfide 2-7) | 7.8 |  |  |  |  |  |  | 
CC[C@H](C)[C@@H](C(=O)N[C@@H](CC(C)C)C(=O)N[C@@H](CO)C(=O)N[C@@H](CO)C(=O)N[C@H](C(=O)N[C@@H](CC(N)=O)C(=O)N[C@H](C(=O)NCC(=O)N[C@@H](CO)C(=O)N[C@@H](CC(N)=O)C(=O)N[C@H](C(=O)N1CCC[C@H]1C(N)=O)[C@@H](C)O)C(C)C)[C@@H](C)O)N(C)C(=O)[C@H](C)NC(=O)CN(C)C(=O)[C@H](Cc1ccccc1)NC(=O)[C@H](CC(N)=O)NC(=O)[C@H](CC(N)=O)NC(=O)[C@H](CO)NC(=O)[C@H](CO)NC(=O)[C@H](Cc1c[nH]cn1)NC(=O)[C@H](Cc1c[nH]cn1)NC(=O)[C@H](CC(C)C)NC(=O)[C@H](Cc1ccccc1)NC(=O)[C@H](CCC(=O)O)NC(=O)[C@H](C)NC(=O)[C@H](CC(C)C)NC(=O)[C@H](CCCNC(=N)N)NC(=O)[C@H](CCC(N)=O)NC(=O)[C@@H](NC(=O)[C@H](C)NC(=O)[C@@H]1CSSC[C@H](NC(=O)[C@H](CCCN)NC(=O)CC[C@H](NC(=O)CCCCCCCCCCCCCCCCCCC(=O)O)C(=O)O)C(=O)N[C@@H](CC(N)=O)C(=O)N[C@@H]([C@@H](C)O)C(=O)N[C@@H](C)C(=O)N[C@@H]([C@@H](C)O)C(=O)N1)[C@@H](C)O [Compound 65, [19CD]-isoGlu-Orn-C()NTATC()ATQRLAEFLHHSSNNF-Gly(Me)-A-Ile(Me)-LSSTNVGSNTP-NH2] ({C20 diacid-γGlu}-[Orn]CNTATCATQRLAEFLHHSSNNF[Sar]A[NMeI]LSSTNVGSNTP-NH2; disulfide 2-7) |  | SS (SS indicates solubility ≥ 1mg/ml) | SS (SS indicates solubility ≥ 1mg/ml) | SS (SS indicates solubility ≥ 1mg/ml) | SS (SS indicates solubility ≥ 1mg/ml) | SS (SS indicates solubility ≥ 1mg/ml) | SS (SS indicates solubility ≥ 1mg/ml) | SS (SS indicates solubility ≥ 1mg/ml)
CCCCCCCCCCCCCCCCCCCC(=O)N[C@@H](CCC(=O)N[C@@H](CCCNC(=N)N)C(=O)N[C@H]1CSSC[C@@H](C(=O)N[C@@H](C)C(=O)N[C@H](C(=O)N[C@@H](CCC(N)=O)C(=O)N[C@@H](CCCNC(=N)N)C(=O)N[C@@H](CC(C)C)C(=O)N[C@@H](C)C(=O)N[C@@H](CCC(=O)O)C(=O)N[C@@H](Cc2ccccc2)C(=O)N[C@@H](CC(C)C)C(=O)N[C@@H](Cc2c[nH]cn2)C(=O)N[C@@H](CCCNC(=N)N)C(=O)N[C@@H](CO)C(=O)N[C@@H](CO)C(=O)N[C@@H](CC(N)=O)C(=O)N[C@@H](CC(N)=O)C(=O)N[C@@H](Cc2ccccc2)C(=O)N(C)CC(=O)N[C@@H](C)C(=O)N(C)[C@H](C(=O)N[C@@H](CC(C)C)C(=O)N[C@@H](CO)C(=O)N[C@@H](CO)C(=O)N[C@H](C(=O)N[C@@H](CC(N)=O)C(=O)N[C@H](C(=O)NCC(=O)N[C@@H](CO)C(=O)N[C@@H](CC(N)=O)C(=O)N[C@H](C(=O)N2CCC[C@H]2C(N)=O)[C@@H](C)O)C(C)C)[C@@H](C)O)[C@@H](C)CC)[C@@H](C)O)NC(=O)[C@H]([C@@H](C)O)NC(=O)[C@H](C)NC(=O)[C@H]([C@@H](C)O)NC(=O)[C@H](CC(N)=O)NC1=O)C(=O)O [Compound 94, [Eicosanoyl]-isoGlu-RC()NTATC()ATQRLAEFLHRSSNNF-Gly(Me)-A-Ile(Me)-LSSTNVGSNTP-NH2] ({Arachidoyl-γGlu}-RCNTATCATQRLAEFLHRSSNNF[Sar]A[NMeI]LSSTNVGSNTP-NH2; disulfide 2-7) |  | SS (SS indicates solubility ≥ 1mg/ml) | SS (SS indicates solubility ≥ 1mg/ml) | SS (SS indicates solubility ≥ 1mg/ml) | SS (SS indicates solubility ≥ 1mg/ml) | SS (SS indicates solubility ≥ 1mg/ml) | SS (SS indicates solubility ≥ 1mg/ml) | SS (SS indicates solubility ≥ 1mg/ml)
